Key:
[1] = target: T1, HDAC6 human recombinant (Homo sapiens, UniProt Q9UBN7); assay: HDAC6 enzyme activity inhibition (fluorimetric, in vitro); assay type: biochemical; conditions: 37° C., 60 minutes; tested at 0.1, 1, 10, 100 and 1000 nM
T1 construct: purchased Calbiochem 382180
T1 sequence (Q9UBN7 1-1215): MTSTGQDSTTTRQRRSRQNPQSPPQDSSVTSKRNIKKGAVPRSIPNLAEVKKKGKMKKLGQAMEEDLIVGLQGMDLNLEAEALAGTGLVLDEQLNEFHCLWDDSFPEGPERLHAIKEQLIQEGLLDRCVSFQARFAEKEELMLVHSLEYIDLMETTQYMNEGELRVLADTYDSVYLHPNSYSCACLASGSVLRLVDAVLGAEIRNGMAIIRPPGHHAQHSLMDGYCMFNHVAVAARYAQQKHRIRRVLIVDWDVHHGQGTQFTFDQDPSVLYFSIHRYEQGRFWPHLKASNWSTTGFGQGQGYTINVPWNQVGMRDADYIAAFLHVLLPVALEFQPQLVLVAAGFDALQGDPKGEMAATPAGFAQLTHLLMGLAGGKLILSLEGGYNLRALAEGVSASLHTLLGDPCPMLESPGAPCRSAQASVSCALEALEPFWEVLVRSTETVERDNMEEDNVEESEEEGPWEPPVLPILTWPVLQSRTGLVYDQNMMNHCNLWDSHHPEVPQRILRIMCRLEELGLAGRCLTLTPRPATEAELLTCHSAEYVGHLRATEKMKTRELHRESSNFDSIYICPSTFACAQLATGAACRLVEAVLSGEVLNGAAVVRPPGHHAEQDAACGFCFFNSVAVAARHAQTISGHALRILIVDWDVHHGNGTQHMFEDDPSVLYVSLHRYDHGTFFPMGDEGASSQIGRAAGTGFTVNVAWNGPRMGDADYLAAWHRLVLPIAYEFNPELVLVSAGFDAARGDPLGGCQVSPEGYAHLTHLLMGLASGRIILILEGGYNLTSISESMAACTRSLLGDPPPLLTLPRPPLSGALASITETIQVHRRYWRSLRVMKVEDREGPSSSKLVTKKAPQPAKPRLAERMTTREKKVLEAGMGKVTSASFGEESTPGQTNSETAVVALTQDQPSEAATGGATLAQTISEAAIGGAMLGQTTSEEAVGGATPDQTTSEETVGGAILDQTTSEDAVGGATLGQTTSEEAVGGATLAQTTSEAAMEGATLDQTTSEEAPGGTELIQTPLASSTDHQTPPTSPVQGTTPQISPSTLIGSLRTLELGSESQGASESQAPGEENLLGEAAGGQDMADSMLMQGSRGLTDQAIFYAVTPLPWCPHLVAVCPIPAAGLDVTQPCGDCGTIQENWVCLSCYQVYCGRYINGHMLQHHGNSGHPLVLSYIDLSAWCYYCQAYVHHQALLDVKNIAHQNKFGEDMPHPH
Experimental: (§1) 1. Experiment on Activities in HDAC Enzymes (HDAC1 and HDAC6)
(§2) Assays were performed using a HDAC1 fluorimetric drug discovery assay kit (Enzolifesciences: BML-AK511) and a HDAC6 human recombinant (Calbiochem: 382180). The assay mixture of the kit was treated with each of the compounds of the Examples at concentrations 100, 1000 and 10000 nM for HDAC1 assay and 0.1, 1, 10, 100 and 1000 nM for HDAC6 assay. The treated assay mixture was allowed to react at 37° C. for 60 minutes, and then was treated with a developer and allowed to stand at 37° C. for 30 minutes, followed by quantification of the fluorescence. In Table 17, lower HDAC6 values (μM) indicate higher HDAC6 inhibitory activities of the compounds. Also, because selective HDAC6 inhibitors should not inhibit HDAC1 (μM), higher HDAC1 values indicate higher HDAC6 selectivity of the compounds.

[2] = target: T2, HDAC1 (Homo sapiens, UniProt Q13547); assay: HDAC1 enzyme activity inhibition (HDAC1 fluorimetric drug discovery assay kit); assay type: biochemical; conditions: 37° C., 60 minutes; tested at 100, 1000 and 10000 nM
T2 construct: purchased Enzolifesciences BML-AK511
Experimental: as §1, §2

T2 sequence (Q13547 whole entry): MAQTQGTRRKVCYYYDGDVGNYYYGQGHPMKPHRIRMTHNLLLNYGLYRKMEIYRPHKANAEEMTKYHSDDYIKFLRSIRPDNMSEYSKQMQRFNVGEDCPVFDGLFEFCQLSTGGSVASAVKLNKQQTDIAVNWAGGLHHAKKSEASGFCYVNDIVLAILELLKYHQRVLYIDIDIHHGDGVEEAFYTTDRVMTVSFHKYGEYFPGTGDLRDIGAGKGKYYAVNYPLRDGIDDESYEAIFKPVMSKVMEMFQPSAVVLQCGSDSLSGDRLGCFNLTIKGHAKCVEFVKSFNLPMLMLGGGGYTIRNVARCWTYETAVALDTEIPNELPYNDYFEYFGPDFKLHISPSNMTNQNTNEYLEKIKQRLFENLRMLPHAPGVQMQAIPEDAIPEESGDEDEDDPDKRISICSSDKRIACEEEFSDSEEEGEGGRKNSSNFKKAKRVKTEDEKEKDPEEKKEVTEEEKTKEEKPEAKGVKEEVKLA

| IC50 [1] | IC50 [2] | SMILES |
| --- | --- | --- |
| 587 nM | > 10000 nM | CC(C)(F)CN1CCC(Cn2c(-c3cc(F)cc(F)c3)c(Cc3ccc(C(=O)NO)cc3)c3ccccc32)CC1 [Compound 626, 4-((2-(3,5-Difluorophenyl)-1-((1-(2-fluoro-2-methylpropyl)piperidin-4-yl)methyl)-1H-indol-3-yl)methyl)-N-hydroxybenzamide] |
| 7 nM | > 10000 nM | Cc1c(Cc2ccc(C(=O)NO)cc2)c2ccccc2n1CC1CCN(CC2(F)CCN(CC(C)(C)F)CC2)CC1 [Compound 615, 4-((1-((1-((4-Fluoro-1-(2-fluoro-2-methylpropyl)piperidin-4-yl)methyl)piperidin-4-yl)methyl)-2-methyl-1H-indol-3-yl)methyl)-N-hydroxybenzamide] |
| 80 nM | 6110 nM | CCCCN1CCC(Cn2c(C)c(Cc3ccc(C(=O)NO)cc3)c3ccccc32)CC1 [Compound 558, 4-((1-((1-Butylpiperidin-4-yl)methyl)-2-methyl-1H-indol-3-yl)methyl)-N-hydroxybenzamide] |
| 24 nM | 3860 nM | O=C(NO)c1ccc(Cc2c(CN3CCOCC3)[nH]c3ccccc23)cc1 [Compound 155, N-hydroxy-4-((2-(morpholinomethyl)-1H-indol-3-yl)methyl)benzamide] |
| 30 nM | 2810 nM | Cc1c(Cc2ccc(C(=O)NO)cc2)c2cc(F)ccc2n1CCN1CC[C@H](O)C1 [Compound 587, (S)-4-((5-fluoro-1-(2-(3-hydroxypyrrolidin-1-yl)ethyl)-2-methyl-1H-indol-3-yl)methyl)-N-hydroxybenzamide] |
| 32 nM | 7140 nM | Cc1c(Cc2ccc(C(=O)NO)cc2)c2ccccc2n1CCN1CC[C@H](F)C1 [Compound 593, (S)-4-((1-(2-(3-fluoropyrrolidin-1-yl)ethyl)-2-methyl-1H-indol-3-yl)methyl)-N-hydroxybenzamide] |
| 28 nM | 1480 nM | Cc1c(Cc2ccc(C(=O)NO)cc2)c2ccccc2n1CC1CCN(Cc2ccccn2)CC1 [Compound 623, N-hydroxy-4-((2-methyl-1-((1-(pyridin-2-ylmethyl)piperidin-4-yl)methyl)-1H-indol-3-yl)methyl)benzamide] |
| 6 nM | 1610 nM | Cc1c(Cc2ccc(C(=O)NO)cc2)c2ccccc2n1CCN1CCN(C(C)C)CC1 [Compound 196, N-hydroxy-4-((1-(2-(4-isopropylpiperazin-1-yl)ethyl)-2-methyl-1H-indol-3-yl)methyl)benzamide] |
| 770 nM | > 10000 nM | Cc1c(Cc2ccc(C(=O)NO)cc2)c2ccccc2n1CC1CCN(Cc2cc(F)c(F)cc2F)CC1 [Compound 619, N-hydroxy-4-((2-methyl-1-((1-(2,4,5-trifluorobenzyl)piperidin-4-yl)methyl)-1H-indol-3-yl)methyl)benzamide] |
| 16 nM | 4950 nM | Cc1c(Cc2ccc(C(=O)NO)cc2)c2ccccc2n1CCN1CC[C@H](O)C1 [Compound 592, (S)—N-hydroxy-4-((1-(2-(3-hydroxypyrrolidin-1-yl)ethyl)-2-methyl-1H-indol-3-yl)methyl)benzamide] |
| 306 nM | > 10000 nM | Cc1c(Cc2ccc(C(=O)NO)cc2)c2ccccc2n1CC1CCN(Cc2ccccc2F)CC1 [Compound 620, 4-((1-((1-(2-Fluorobenzyl)piperidin-4-yl)methyl)-2-methyl-1H-indol-3-yl)methyl)-N-hydroxybenzamide] |
| 123 nM | > 10000 nM | Cc1c(Cc2ccc(C(=O)NO)cc2)c2ccccc2n1CC1CCN(CC2(F)CCN(S(C)(=O)=O)CC2)CC1 [Compound 696, 4-((1-((1-((4-Fluoro-1-(methylsulfonyl)piperidin-4-yl)methyl)piperidin-4-yl)methyl)-2-methyl-1H-indol-3-yl)methyl)-N-hydroxybenzamide] |
| 76 nM | 4980 nM | Cc1c(Cc2ccc(C(=O)NO)cc2)c2ccccc2n1CCCCN1CCN(CC(C)(C)F)CC1 [Compound 639, 4-((1-(4-(4-(2-Fluoro-2-methylpropyl)piperazin-1-yl)butyl)-2-methyl-1H-indol-3-yl)methyl)-N-hydroxybenzamide] |
